The IC50 is the concentration at which inhibition is half-maximal.

Structures are written as SMILES.

Human recombinant protein CD73, sequence (P21589 27-574): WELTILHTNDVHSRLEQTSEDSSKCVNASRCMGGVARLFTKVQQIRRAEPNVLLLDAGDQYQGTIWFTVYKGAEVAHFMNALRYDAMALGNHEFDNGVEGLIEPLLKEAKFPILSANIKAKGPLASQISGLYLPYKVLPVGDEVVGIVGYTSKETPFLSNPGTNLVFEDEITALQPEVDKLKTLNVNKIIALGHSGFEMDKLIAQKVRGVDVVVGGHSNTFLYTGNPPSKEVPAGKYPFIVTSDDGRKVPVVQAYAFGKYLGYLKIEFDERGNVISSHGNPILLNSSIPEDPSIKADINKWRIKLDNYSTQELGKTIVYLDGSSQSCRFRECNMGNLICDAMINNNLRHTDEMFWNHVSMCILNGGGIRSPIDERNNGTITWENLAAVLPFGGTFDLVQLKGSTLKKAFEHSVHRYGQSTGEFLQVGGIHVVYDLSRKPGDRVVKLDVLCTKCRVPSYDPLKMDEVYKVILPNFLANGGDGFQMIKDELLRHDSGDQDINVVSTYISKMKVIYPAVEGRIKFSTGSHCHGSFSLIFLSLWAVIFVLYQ

The test system of the first experiment is B16F10 xenograft tumor. Put plainly: B16F10 xenograft tumor model in vivo. The settings on record: 30 mg/kg, single agent. More on the design: species or system mouse. Here is the method: B16F10 Xenograft Tumor Model In Vivo
B16F10 cells were purchased from ATCC, the cell medium was DMEM+10% FBS+1% double antibody, and the cells were cultured in an incubator at 37° C. under 5% CO2. After the cells had grown to a number sufficient for inoculation, the cells were harvested. The cell-containing culture solution was transferred to a 50 mL sterile centrifuge tube, and centrifuged at 1500 rpm for 3 minutes. The centrifuge tube was taken out after centrifugation, and the supernatant was discarded. The cells were resuspended in a pre-cooled PBS and centrifuged at 1500 rpm for 3 minutes, and after centrifugation, the supernatant was discarded; the process was repeated twice. Finally, the cells were resuspended in a pre-cooled PBS. After counting, the cells were diluted to 1×10^6 cells/mL with a pre-cooled PBS. […] The second day of inoculation was recorded as Day 0, and compound 28 (the vehicle was phosphate buffer saline) was given by intragastric administration every day after randomization, and animals in both the group with the anti-PD-1 antibody (anti-PD-1; BioXcell, Cat. CD279) and the group with combined drugs were injected intraperitoneally with the anti-PD-1 antibody (twice a week). The long and short diameters of the tumors were measured with an electronic vernier caliper, and the body weight of the animals was recorded. […]
For the molecule `C[C@H](Nc1cc(Cl)nc2c1cnn2[C@@H]1O[C@H](COP(=O)(O)CP(=O)(O)O)[C@@H](O)[C@H]1O)c1ccccc1F` [AB680, reference compound], the “TGI % (day 15)” value is 57.96%.

Staying with this experiment, now noted: 100 mg/kg, intragastric administration every day, single agent.
`O=P(O)(O)CP(=O)(O)OC[C@H]1O[C@@H](n2ncc3c(N4C[C@H]5CCC[C@H]5C4)nc(Cl)nc32)[C@H](O)[C@@]1(O)CO` [Compound 28, (((((2R,3S,4R,5R)-5-(6-chloro-4-((3aR,6aS)-hexahydrocyclopenta[c]pyrrol-2(1H)-yl)-1H-pyrazolo[3,4-d]pyrimidin-1-yl)-3,4-dihydroxy-3-(hydroxymethyl)tetrahydrofuran-2-yl)methoxy)(hydroxy)phosphoryl)methyl)phosphonic acid]: the “TGI % (day 15)” value amounted to 50.12%.

The next experiment concerns the target Human recombinant protein CD73 (Homo sapiens (Human), UniProt P21589). The experiment in a line: CD73 enzyme activity in vitro (Malachite Green, AMP substrate). It is filed as biochemical. The settings on record: recombinant CD73, 100 μM AMP substrate solution, absorbance at 620 nm. The procedure: 1. Test Method for CD73 Enzyme Activity In Vitro
Human recombinant protein CD73 (Acro, Cat. No. CD3-H52H7) was prepared into a 0.04 ng/μL protein solution, and substrate AMP (Sigma, Cat. No. A1752-1G) was prepared into a 100 μM substrate solution. 5 μL of compounds at different concentrations were added into a 384-well white transparent bottom plate, 5 μL of 0.04 ng/μL recombinant CD73 enzyme solution was added, and the mixture was incubated at room temperature for 15 minutes. 10 μL of 100 μM substrate solution was added, the mixture was incubated at 37° C. for 40 minutes, 5 μL of Malachite Green Reagent A (R&D, Cat. No. DY996) was added, the mixture was incubated at room temperature for 10 minutes, and finally, 5 μL of Malachite Green Reagent B was added, the mixture was incubated at room temperature for 20 minutes, and a microplate reader PHERAstar FSX instrument was used to detect the absorbance at 620 nm. IC50 values were calculated using the origin9.2 software. The calculation formula of the inhibition rate was shown in Formula 1, wherein ODsample is the readout for the compound, ODnegative is the readout for the negative control without substrate, and ODpositive is the readout for the vehicle control.
For `C[C@H](Nc1cc(Cl)nc2c1cnn2[C@@H]1O[C@H](COP(=O)(O)CP(=O)(O)O)[C@](O)(CO)[C@H]1O)c1ccccc1F` [Compound 12, (((((2R,3S,4R,5R)-5-(6-chloro-4-(((S)-1-(2-fluorophenyl)ethyl)amino)-1H-pyrazolo[3,4-b]pyridin-1-yl)-3,4-dihydroxy-3-(hydroxymethyl)tetrahydrofuran-2-yl)methoxy)(hydroxy)phosphoryl)methyl)phosphonic acid], the IC50 amounted to 0.4 nM. For the molecule `CONc1nc(Cl)nc2c1cnn2[C@@H]1O[C@H](COP(=O)(O)CP(=O)(O)O)[C@@H](O)[C@H]1O` [Compound 18, (((((2R,3S,4R,5R)-5-(6-chloro-4-(methoxyamino)-1H-pyrazolo[3,4-d]pyrimidin-1-yl)-3,4-dihydroxytetrahydrofuran-2-yl)methoxy)(hydroxy)phosphoryl)methyl)phosphonic acid], the IC50 is 1.8 nM. Same read-out and setting: in the case of `CONc1cc(Cl)nc2c1cnn2[C@@H]1O[C@H](COP(=O)(O)CP(=O)(O)O)[C@@H](O)[C@H]1O` [Compound 24, (((((2R,3S,4R,5R)-5-(6-chloro-4-(methoxyamino)-1H-pyrazolo[3,4-b]pyridin-1-yl)-3,4-dihydroxytetrahydrofuran-2-yl)methoxy)(hydroxy)phosphoryl)methyl) phosphonic acid] it was 5.3 nM; in that of `O=P(O)(O)CP(=O)(O)OC[C@H]1O[C@@H](n2ncc3c(NOC4CCCC4)nc(Cl)nc32)[C@H](O)[C@@H]1O` [Compound 25, (((((2R,3S,4R,5R)-5-(6-chloro-4-((cyclopentyloxy)amino)-1H-pyrazolo[3,4-d]pyrimidin-1-yl)-3,4-dihydroxytetrahydrofuran-2-yl)methoxy)(hydroxy)phosphoryl)methyl)phosphonic acid], 0.4 nM; in that of `CC(C)ONc1cc(Cl)nc2c1cnn2[C@@H]1O[C@H](COP(=O)(O)CP(=O)(O)O)[C@@H](O)[C@H]1O` [Compound 26, (((((2R,3 S,4R,5R)-5-(6-chloro-4-(isopropoxyamino)-1H-pyrazolo[3,4-b]pyridin-1-yl)-3,4-dihydroxytetrahydrofuran-2-yl)methoxy)(hydroxy)phosphoryl)methyl)phosphonic acid], 2.9 nM. Still for that read-out and setting: the figure for `CC(C)ONc1nc(Cl)nc2c1cnn2[C@@H]1O[C@H](COP(=O)(O)CP(=O)(O)O)[C@@H](O)[C@H]1O` [Compound 27, (((((2R,3S,4R,5R)-5-(6-chloro-4-(isopropoxyamino)-1H-pyrazolo[3,4-d]pyrimidin-1-yl)-3,4-dihydroxytetrahydrofuran-2-yl)methoxy)(hydroxy)phosphoryl)methyl)phosphonic acid] is 1.7 nM.

For `O=P(O)(O)CP(=O)(O)OC[C@H]1O[C@@H](n2ncc3c(N4C[C@H]5CCC[C@H]5C4)nc(Cl)nc32)[C@H](O)[C@@]1(O)CO` [Compound 28, (((((2R,3S,4R,5R)-5-(6-chloro-4-((3aR,6aS)-hexahydrocyclopenta[c]pyrrol-2(1H)-yl)-1H-pyrazolo[3,4-d]pyrimidin-1-yl)-3,4-dihydroxy-3-(hydroxymethyl)tetrahydrofuran-2-yl)methoxy)(hydroxy)phosphoryl)methyl)phosphonic acid], the IC50 came out at 0.7 nM. As for `O=P(O)(O)CP(=O)(O)OC[C@H]1O[C@@H](n2ncc3c(N4C[C@H]5CCC[C@H]5C4)cc(Cl)nc32)[C@H](O)[C@@]1(O)CO` [Compound 29, (((((2R,3S,4R,5R)-5-(6-chloro-4-((3aR,6aS)-hexahydrocyclopenta[c]pyrrol-2(1H)-yl)-1H-pyrazolo[3,4-b]pyridin-1-yl)-3,4-dihydroxy-3-(hydroxymethyl)tetrahydrofuran-2-yl)methoxy)(hydroxy)phosphoryl)methyl) phosphonic acid], the 50% inhibitory concentration (IC50) came to 2.6 nM. Same read-out and setting: in the case of `O=P(O)(O)CP(=O)(O)OC[C@H]1O[C@@H](n2ncc3c(NOCc4ccccc4)nc(Cl)nc32)[C@H](O)[C@@H]1O` [Compound 30, (((((2R,3S,4R,5R)-5-(4-((benzyloxy)amino)-6-chloro-1H-pyrazolo[3,4-d]pyrimidin-1-yl)-3,4-dihydroxytetrahydrofuran-2-yl)methoxy)(hydroxy)phosphoryl)methyl)phosphonic acid] it was 0.2 nM; in that of `O=P(O)(O)CP(=O)(O)OC[C@H]1O[C@H](n2ncc3c(N4C[C@H]5CCC[C@H]5C4)nc(Cl)nc32)[C@H](O)[C@@]1(O)CO` [Compound 31, (((((2R,3S,4R,5S)-5-(6-chloro-4-((3aR,6aS)-hexahydrocyclopenta[c]pyrrol-2(1H)-yl)-1H-pyrazolo[3,4-d]pyrimidin-1-yl)-3,4-dihydroxy-3-(hydroxymethyl)tetrahydrofuran-2-yl)methoxy)(hydroxy)phosphoryl)methyl)phosphonic acid], 0.7 nM.

Turning to `O=P(O)(O)CP(=O)(O)OC[C@H]1O[C@@H](n2ncc3c(N4C[C@H]5CCC[C@H]5C4)cc(Cl)nc32)[C@H](O)[C@@]1(O)C(F)F` [Compound 32, (((((2R,3S,4R,5R)-5-(6-chloro-4-((3aR,6aS)-hexahydrocyclopenta[c]pyrrol-2(1H)-yl)-1H-pyrazolo[3,4-b]pyridin-1-yl)-3-(difluoromethyl)-3,4-dihydroxytetrahydrofuran-2-yl)methoxy)(hydroxy)phosphoryl)methyl)phosphonic acid], the half-maximal inhibitory concentration (IC50) was 0.9 nM. Same read-out and setting: in the case of `O=P(O)(O)CP(=O)(O)OC[C@H]1O[C@@H](n2ncc3c(N4C[C@H]5CCC[C@H]5C4)nc(Cl)nc32)[C@H](O)[C@@]1(O)C(F)F` [Compound 33, (((((2R,3S,4R,5R)-5-(6-chloro-4-((3aR,6aS)-hexahydrocyclopenta[c]pyrrol-2(1H)-yl)-1H-pyrazolo[3,4-d]pyrimidin-1-yl)-3-(difluoromethyl)-3,4-dihydroxytetrahydrofuran-2-yl)methoxy)(hydroxy)phosphoryl)methyl)phosphonic acid] it was 1.2 nM; in that of `C[C@@]1(O)[C@@H](COP(=O)(O)CP(=O)(O)O)O[C@@H](n2ncc3c(N4C[C@H]5CCC[C@H]5C4)nc(Cl)nc32)[C@@H]1O` [Compound 38, (((((2R,3S,4R,5R)-5-(6-chloro-4-((3aR,6aS)-hexahydrocyclopenta[c]pyrrol-2(1H)-yl)-1H-pyrazolo[3,4-d]pyrimidin-1-yl)-3,4-dihydroxy-3-methyltetrahydrofuran-2-yl)methoxy)(hydroxy)phosphoryl)methyl)phosphonic acid], 0.3 nM; in that of `C#C[C@@]1(O)[C@@H](COP(=O)(O)CP(=O)(O)O)O[C@@H](n2ncc3c(N4C[C@H]5CCC[C@H]5C4)nc(Cl)nc32)[C@@H]1O` [Compound 40, (((((2R,3S,4R,5R)-5-(6-chloro-4-((3aR,6aS)-hexahydrocyclopenta[c]pyrrol-2(1H)-yl)-1H-pyrazolo[3,4-d]pyrimidin-1-yl)-3-ethynyl-3,4-dihydroxytetrahydrofuran-2-yl)methoxy)(hydroxy)phosphoryl)methyl)phosphonic acid], 0.06 nM.

Source of the values: US20240368204A1, “SMALL MOLECULAR CD73 ANTAGONIST AND USE THEREOF” (XIZANG HAISCO PHARMACEUTICAL CO., LTD., priority 2021, published 2024).
